Assay results taken from ChEMBL document CHEMBL5465560, “Selectivity Literature for EUbOPEN Chemogenomic Library” (2024).

What was measured:
[1] = target: RAC-gamma serine/threonine-protein kinase (Homo sapiens, UniProt Q9Y243); assay: Selectivity interaction (KinomeScan (DiscoverX)) EUB0000092b AKT3; details: at 10 µM
[2] = target: Sodium-dependent dopamine transporter (Homo sapiens, UniProt Q01959); assay: Selectivity interaction (Safety Panel 44tm (Eurofins)) EUB0000162b SLC6A3; details: at 10 µM
[3] = target: T1, Tyrosine-protein kinase receptor TYRO3 (Homo sapiens) (UniProt Q06418); assay: Selectivity interaction (Millipore kinase profiler) EUB0000124b TYRO3; details: at 10 µM
T1 sequence (whole entry): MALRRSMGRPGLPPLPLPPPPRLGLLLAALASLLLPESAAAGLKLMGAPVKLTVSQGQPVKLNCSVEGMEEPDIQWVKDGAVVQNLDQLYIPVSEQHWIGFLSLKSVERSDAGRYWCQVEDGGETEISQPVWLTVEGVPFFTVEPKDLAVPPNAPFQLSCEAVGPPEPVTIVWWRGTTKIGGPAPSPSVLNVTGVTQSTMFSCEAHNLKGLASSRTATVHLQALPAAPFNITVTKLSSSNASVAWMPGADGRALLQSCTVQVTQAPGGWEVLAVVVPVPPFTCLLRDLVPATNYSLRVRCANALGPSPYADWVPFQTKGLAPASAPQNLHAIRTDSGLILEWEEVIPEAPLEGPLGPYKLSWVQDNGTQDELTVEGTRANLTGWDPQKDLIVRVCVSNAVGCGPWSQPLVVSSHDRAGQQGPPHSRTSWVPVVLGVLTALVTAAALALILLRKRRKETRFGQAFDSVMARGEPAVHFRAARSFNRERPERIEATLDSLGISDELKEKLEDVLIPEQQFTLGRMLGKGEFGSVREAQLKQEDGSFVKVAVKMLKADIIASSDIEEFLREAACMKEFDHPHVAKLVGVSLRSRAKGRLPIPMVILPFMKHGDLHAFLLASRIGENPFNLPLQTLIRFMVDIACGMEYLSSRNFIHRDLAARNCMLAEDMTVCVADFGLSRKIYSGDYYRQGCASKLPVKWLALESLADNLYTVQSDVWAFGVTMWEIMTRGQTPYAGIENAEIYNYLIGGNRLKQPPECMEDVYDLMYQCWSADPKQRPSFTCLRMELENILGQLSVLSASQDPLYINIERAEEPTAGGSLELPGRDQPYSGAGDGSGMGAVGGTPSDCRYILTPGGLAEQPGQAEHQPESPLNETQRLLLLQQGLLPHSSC

[4] = target: Glycogen synthase kinase-3 beta (Homo sapiens, UniProt P49841); assay: Selectivity interaction (Kinase panel (Z-LYTE Assay)) EUB0001632a GSK3B; details: at 10 µM
[5] = target: T2, Tyrosine-protein kinase Tec (Homo sapiens) (UniProt P42680); assay: Selectivity interaction (Kinase panel (Invitrogen)) EUB0000639a TEC; details: at 200 nM
T2 sequence (whole entry): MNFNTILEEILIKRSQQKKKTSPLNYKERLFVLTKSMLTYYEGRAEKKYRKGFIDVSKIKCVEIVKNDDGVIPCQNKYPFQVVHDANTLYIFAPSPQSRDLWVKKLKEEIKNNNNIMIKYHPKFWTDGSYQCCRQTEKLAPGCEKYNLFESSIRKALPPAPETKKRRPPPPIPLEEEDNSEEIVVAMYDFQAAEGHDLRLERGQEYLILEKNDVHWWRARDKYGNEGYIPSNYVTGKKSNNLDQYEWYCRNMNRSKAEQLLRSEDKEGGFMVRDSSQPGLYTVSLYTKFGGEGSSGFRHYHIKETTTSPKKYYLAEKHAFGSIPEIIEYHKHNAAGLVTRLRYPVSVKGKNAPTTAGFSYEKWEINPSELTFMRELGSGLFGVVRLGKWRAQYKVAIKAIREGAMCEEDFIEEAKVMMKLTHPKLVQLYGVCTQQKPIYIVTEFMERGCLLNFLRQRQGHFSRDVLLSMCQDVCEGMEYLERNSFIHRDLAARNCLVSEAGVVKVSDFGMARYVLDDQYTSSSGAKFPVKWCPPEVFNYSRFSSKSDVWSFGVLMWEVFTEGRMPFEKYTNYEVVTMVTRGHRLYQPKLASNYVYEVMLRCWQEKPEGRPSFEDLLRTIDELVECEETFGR

[6] = tested on: Hepatocyte growth factor receptor (Homo sapiens), P08581 [M1250T]; assay: (§1) Selectivity interaction (KinomeScan (DiscoverX)) EUB0001049a MET; details: at 1 µM
[7] = target: Hepatocyte growth factor receptor (Homo sapiens, UniProt P08581); assay: as §1; details: at 1 µM
[8] = target: Serine/threonine-protein kinase PLK2 (Homo sapiens, UniProt Q9NYY3); assay: Selectivity interaction (KinomeScan (DiscoverX)) EUB0000595a PLK2; details: at 10 µM
[9] = target: Ribosomal protein S6 kinase beta-1 (Homo sapiens, UniProt P23443); assay: Selectivity interaction (KinomeScan (DiscoverX)) EUB0000595a RPS6KB1; details: at 10 µM
[10] = target: T3, Cyclin-dependent kinase 11A (Homo sapiens) (UniProt Q9UQ88); assay: Selectivity interaction (KinomeScan (DiscoverX)) EUB0000045b CDK11A; details: at 10 µM
T3 sequence (whole entry): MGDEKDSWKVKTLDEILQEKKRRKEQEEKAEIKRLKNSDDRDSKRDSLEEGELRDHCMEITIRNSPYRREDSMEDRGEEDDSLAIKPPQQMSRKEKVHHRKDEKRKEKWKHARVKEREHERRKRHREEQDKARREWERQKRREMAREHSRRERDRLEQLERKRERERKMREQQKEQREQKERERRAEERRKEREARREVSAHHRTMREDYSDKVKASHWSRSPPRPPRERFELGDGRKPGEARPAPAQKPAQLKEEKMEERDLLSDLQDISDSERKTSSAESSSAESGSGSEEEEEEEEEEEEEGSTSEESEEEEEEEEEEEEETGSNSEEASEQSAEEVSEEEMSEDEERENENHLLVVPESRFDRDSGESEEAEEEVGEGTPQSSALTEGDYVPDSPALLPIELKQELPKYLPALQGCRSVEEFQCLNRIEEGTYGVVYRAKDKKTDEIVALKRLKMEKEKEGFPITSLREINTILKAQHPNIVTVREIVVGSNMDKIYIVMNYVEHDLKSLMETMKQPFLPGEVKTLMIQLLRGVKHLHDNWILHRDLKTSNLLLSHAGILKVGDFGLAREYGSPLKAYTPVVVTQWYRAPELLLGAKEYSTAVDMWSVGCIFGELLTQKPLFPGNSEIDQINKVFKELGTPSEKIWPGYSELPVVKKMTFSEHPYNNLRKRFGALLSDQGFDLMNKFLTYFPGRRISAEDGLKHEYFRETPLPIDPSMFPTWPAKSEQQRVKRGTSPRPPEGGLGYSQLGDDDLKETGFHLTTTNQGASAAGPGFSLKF

[11] = target: Dual specificity tyrosine-phosphorylation-regulated kinase 1A (Homo sapiens, UniProt Q13627); assay: Selectivity interaction (KinomeScan (DiscoverX)) EUB0000045b DYRK1A
[12] = target: Mitogen-activated protein kinase 6 (Homo sapiens) (UniProt Q16659); assay: Selectivity interaction (KinomeScan (DiscoverX)) EUB0001619a MAPK6; details: at 1 µM
Chain of Mitogen-activated protein kinase 6 (Homo sapiens) (Q16659 whole entry): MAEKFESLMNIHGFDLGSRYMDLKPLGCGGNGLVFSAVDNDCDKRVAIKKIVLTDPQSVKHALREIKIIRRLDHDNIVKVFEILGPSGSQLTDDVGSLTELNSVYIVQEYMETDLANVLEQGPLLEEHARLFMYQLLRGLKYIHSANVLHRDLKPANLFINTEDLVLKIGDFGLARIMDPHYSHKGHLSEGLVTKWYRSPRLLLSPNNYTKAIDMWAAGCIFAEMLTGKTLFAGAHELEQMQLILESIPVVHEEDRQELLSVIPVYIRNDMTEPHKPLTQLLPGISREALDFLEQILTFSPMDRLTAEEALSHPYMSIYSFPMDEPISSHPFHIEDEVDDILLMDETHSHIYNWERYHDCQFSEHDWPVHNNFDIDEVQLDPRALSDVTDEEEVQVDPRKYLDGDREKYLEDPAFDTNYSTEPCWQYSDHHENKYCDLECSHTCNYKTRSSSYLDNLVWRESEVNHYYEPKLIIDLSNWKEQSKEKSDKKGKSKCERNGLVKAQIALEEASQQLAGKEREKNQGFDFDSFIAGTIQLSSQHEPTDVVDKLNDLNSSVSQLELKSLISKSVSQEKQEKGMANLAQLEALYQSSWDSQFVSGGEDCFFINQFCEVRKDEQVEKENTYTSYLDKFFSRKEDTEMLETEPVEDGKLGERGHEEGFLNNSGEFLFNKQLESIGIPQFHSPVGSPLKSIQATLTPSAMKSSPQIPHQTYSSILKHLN

Chain of RAC-gamma serine/threonine-protein kinase (Q9Y243 whole entry): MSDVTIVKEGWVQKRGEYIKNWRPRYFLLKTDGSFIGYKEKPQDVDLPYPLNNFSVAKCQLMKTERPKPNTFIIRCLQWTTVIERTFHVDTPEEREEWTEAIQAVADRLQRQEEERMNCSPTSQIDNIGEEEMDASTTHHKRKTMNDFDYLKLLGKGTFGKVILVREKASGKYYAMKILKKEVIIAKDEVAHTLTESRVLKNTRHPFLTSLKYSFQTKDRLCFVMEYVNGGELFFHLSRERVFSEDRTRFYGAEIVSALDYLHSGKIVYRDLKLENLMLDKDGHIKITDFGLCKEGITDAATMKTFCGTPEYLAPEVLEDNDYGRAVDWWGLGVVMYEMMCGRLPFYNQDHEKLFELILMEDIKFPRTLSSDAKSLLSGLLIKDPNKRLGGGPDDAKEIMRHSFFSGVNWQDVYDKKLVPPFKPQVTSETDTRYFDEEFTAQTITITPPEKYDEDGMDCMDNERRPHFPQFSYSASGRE
Chain of Sodium-dependent dopamine transporter (Q01959 whole entry): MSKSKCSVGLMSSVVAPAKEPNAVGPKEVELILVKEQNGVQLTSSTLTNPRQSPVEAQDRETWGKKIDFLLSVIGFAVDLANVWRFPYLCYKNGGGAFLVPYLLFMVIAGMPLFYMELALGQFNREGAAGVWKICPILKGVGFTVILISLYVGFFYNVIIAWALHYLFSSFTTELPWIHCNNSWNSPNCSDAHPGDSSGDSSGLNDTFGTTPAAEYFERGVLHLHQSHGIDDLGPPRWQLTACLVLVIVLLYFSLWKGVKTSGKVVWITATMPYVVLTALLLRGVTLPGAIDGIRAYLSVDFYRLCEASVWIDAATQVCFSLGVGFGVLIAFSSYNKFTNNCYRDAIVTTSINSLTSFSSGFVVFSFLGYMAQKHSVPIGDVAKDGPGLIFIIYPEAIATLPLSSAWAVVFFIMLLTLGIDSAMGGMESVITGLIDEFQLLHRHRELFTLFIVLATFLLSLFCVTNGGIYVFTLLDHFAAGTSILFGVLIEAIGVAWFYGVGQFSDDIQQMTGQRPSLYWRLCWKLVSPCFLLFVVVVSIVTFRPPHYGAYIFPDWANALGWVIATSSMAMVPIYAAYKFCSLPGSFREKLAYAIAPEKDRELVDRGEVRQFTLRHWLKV
Chain of Hepatocyte growth factor receptor (P08581 whole entry): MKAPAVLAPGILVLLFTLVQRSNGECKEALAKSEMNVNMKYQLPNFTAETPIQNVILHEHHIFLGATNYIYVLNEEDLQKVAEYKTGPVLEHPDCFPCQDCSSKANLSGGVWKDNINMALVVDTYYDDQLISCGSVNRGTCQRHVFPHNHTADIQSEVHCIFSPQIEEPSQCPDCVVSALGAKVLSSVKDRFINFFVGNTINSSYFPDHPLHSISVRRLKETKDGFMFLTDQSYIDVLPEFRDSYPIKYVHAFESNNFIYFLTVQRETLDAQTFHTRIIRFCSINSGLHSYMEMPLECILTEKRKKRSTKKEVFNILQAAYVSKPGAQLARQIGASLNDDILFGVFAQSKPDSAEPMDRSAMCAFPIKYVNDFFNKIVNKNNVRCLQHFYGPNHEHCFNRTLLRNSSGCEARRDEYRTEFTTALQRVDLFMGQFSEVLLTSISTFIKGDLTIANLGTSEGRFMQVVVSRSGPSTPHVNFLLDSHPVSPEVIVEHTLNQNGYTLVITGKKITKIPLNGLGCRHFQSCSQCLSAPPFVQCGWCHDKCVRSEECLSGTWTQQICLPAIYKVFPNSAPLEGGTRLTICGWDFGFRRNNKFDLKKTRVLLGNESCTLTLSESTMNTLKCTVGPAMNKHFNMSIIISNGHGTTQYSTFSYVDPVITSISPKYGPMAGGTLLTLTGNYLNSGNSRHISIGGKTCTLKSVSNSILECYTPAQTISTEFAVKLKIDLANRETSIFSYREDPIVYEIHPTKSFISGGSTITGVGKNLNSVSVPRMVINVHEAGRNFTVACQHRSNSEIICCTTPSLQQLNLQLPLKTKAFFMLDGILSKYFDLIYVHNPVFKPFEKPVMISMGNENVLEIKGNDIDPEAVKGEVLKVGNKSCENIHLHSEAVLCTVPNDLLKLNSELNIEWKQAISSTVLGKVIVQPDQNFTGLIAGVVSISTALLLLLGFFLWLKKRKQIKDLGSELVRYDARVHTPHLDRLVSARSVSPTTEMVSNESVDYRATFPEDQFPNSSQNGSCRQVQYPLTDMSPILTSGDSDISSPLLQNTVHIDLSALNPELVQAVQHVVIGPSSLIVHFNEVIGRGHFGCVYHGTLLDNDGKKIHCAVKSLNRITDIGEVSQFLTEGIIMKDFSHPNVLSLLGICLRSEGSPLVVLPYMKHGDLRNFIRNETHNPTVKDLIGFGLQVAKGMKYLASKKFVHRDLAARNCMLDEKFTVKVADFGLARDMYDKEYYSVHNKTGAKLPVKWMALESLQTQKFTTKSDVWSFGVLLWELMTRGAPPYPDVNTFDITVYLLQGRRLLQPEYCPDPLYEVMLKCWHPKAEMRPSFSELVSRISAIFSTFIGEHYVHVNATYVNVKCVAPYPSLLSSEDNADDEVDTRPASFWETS
Chain of Serine/threonine-protein kinase PLK2 (Q9NYY3 whole entry, looked up): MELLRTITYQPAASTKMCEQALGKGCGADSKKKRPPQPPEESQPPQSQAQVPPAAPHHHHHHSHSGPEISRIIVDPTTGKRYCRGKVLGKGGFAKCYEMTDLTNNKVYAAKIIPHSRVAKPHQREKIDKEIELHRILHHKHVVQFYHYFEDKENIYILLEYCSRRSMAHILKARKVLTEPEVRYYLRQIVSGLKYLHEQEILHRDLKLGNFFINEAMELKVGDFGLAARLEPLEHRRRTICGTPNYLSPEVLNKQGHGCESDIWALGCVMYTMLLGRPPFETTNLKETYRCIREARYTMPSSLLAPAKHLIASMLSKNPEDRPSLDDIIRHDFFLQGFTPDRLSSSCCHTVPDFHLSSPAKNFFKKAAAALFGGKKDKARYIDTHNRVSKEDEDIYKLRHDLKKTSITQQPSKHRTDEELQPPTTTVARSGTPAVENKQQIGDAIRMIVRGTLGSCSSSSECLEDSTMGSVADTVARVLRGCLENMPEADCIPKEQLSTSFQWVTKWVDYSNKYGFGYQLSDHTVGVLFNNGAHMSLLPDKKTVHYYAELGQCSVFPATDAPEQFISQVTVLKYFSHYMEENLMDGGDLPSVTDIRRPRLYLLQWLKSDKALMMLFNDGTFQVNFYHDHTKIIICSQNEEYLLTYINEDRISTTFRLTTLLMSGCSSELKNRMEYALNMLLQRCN
Chain of Glycogen synthase kinase-3 beta (P49841 whole entry, looked up): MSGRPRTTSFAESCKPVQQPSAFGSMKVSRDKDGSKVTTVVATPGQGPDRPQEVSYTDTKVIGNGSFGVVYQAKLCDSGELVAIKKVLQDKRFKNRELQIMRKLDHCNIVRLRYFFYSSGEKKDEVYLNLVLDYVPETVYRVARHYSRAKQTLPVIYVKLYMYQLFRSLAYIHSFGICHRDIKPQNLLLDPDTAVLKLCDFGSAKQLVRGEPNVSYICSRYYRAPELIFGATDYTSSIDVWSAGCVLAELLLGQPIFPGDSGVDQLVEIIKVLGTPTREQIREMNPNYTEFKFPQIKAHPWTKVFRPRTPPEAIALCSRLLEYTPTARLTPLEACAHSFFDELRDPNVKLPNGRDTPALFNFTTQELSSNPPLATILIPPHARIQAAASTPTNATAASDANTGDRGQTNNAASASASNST
Chain of Ribosomal protein S6 kinase beta-1 (P23443 whole entry, looked up): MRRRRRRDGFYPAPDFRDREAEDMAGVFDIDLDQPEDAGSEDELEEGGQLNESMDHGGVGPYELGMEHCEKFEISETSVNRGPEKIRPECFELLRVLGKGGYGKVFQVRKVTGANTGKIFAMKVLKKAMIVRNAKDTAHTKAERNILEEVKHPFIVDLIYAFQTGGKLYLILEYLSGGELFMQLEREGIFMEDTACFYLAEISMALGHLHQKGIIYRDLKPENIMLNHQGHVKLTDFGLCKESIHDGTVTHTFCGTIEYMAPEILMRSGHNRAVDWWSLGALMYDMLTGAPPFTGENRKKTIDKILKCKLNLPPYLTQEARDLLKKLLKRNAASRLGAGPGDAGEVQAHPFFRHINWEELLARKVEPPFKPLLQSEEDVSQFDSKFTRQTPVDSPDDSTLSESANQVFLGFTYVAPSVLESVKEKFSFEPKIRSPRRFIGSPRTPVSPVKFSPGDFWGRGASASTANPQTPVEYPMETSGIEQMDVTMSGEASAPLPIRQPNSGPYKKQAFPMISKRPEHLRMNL

## CCC(=O)N1CCN(c2ccc(-n3c(=O)ccc4cnc5ccc(-c6cnc7ccccc7c6)cc5c43)cc2C(F)(F)F)CC1
[1]
  % of control: 77%

## CN(C)C(=O)Cn1cc(-c2ccc(-c3cncc4ccccc34)cc2)cn1
[2]
  % of control: 87%

## CC(=O)Nc1cccc(-n2c(=O)n(C3CC3)c(=O)c3c(Nc4ccc(I)cc4F)n(C)c(=O)c(C)c32)c1
[3]
  % of control: 112%

## Cn1cc(-n2cnc3c(NCc4nc5cc(Cl)c(Cl)cc5[nH]4)nc(N4CCOCC4)nc32)cn1
[4]
  % of control: 89.1%

## CC[C@@H]1[C@H](F)C(=O)N[C@@H]1COc1nccc2cc(C(N)=O)c(OC)cc12 [ZIMLOVISERTIB]
[5]
  % of inhibition: -4.01%

## COc1cc(Nc2nc(C)cc(-c3cnn4nc(OC)ccc34)n2)cc(C(F)(F)F)c1
[6]
  % of control: 100%
[7]
  % of control: 93%

## COCC(=O)NC/C=C/c1ccc2ncnc(Nc3ccc(Oc4ccc(C)nc4)c(C)c3)c2c1 [CP-724714]
[8]
  % of control: 100%
[9]
  % of control: 65%

## C=CC(=O)Nc1cc(-n2c(=O)ccc3cnc4ccc(-c5ccc(NS(C)(=O)=O)cc5)cc4c32)ccc1C
[10]
  % of control: 100%
[11]; at 1 µM
  % of control: 100%
[11]; at 10 µM
  % of control: 62%

## N#Cc1cccc(-c2c[nH]c3ncnc(N4CCOCC4)c23)c1
[12]
  % of control: 100%
